Results published in patent US4512986A, “Progrestationally active steroids” (priority 1983, dated 1985).

Columns and labels:
[1] = biological target: T1, Cytosol Progesterone Receptor of the Estrogen-primed Immature Rabbit Uterus (Oryctolagus cuniculus, UniProt P06186); test: Relative binding affinity for progesterone receptor (competition with 3H-progesterone); set-up: species or system rabbit (New Zealand White)
T1 construct: cytosol progesterone receptor of the estrogen-primed immature rabbit uterus; tissue Dutchland Laboratories, Inc., Denver, Pa (animals); host or cells: uterus cytosol of estradiol-treated immature female New Zealand White rabbits
T1 sequence (P06186 1-930): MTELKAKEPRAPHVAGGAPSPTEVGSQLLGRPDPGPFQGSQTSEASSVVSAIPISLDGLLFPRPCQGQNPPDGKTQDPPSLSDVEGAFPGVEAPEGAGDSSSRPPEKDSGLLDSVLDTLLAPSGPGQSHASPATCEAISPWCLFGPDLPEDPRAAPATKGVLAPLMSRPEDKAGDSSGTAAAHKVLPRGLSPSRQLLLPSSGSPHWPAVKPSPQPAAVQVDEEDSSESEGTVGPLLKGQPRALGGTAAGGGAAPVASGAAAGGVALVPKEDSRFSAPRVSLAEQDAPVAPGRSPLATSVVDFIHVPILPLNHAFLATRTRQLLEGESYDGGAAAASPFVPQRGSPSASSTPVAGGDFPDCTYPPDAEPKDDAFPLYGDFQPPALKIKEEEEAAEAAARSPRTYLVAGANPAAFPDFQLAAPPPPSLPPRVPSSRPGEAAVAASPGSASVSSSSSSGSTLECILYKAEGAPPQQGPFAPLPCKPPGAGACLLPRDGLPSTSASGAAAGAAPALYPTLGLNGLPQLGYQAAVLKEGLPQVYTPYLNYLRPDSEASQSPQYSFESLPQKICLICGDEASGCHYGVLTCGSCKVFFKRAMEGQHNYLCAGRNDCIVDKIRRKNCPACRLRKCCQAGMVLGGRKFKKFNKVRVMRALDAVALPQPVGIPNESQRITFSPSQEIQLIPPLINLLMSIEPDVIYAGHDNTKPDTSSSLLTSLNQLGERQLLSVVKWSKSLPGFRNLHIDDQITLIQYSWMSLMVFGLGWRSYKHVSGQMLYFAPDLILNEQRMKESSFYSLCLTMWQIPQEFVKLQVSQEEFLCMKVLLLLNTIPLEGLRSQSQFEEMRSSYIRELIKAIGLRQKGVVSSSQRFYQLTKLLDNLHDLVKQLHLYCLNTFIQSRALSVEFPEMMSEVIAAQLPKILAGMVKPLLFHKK
Procedure: RBA values recorded at 0° C. after short incubation times (e.g., 2 hr) mainly reflect differences in the association rate constants of the competing ligands, whereas those measured after long incubation times (e.g., 16 to 24 hr) and/or higher temperatures predominantly are influenced by differences in the dissociation rate constants of the competing ligands. RBA's determined after short incubation times primarily reflect the association of the competitor compared to the natural hormone. Conversely, RBA's measured after long incubation times reflect the dissociation rate of the competitor compared to the natural hormone.
The assay components are combined, allowed to equilibrate, and unbound radioactivity removed by charcoal adsorption.
Animal species. Immature female New Zealand White rabbits weighing 0.8 to 1.0 kg (Dutchland Laboratories, Inc., Denver, Pa).
Pretreatment. Subcutaneous treatment with 15 μg 17β-estradiol/0.6 ml sesame oil each morning (0830 to 0930 hr) for three days. Animals sacrificed 24 hr after final injection.
Tissue. Uterus; each uterus weighed about 1.0 g and two or three uteri were pooled for each assay.
Buffer. (A) 0.01M TES, pH 7.4, 1 mM EDTA, 0.012M thioglycerol and 30% glycerol for cytosol preparation and ^3 H-steroid, unlabeled hormone and compound solutions. (B) 0.01M TES, pH 7.4, 1 mM EDTA and 0.012M thioglycerol for charcoal solution.
Homogenization. Five or six 5-second bursts with 30 second cooling periods between bursts using Brinkman Polytron Pt. 10 at 3.5 rheostat setting.
Temperature. 0°-4° C. for all steps.
Centrifugation. 45,000 rpm for 1 hr, 50 Ti rotor, Beckman L8-80 ultracentrifuge.
Incubation. 16-18 hr at 4°-6° C.
Concentations. 1×10^-10 M to 1×10^-5 M (7 concentrations).
Method. Charcoal adsorption method used to remove unbound radioactivity. Five-tenths ml of dextran-coated charcoal (0.5% Norit A and 0.05% dextran T-70) added to all tubes except total radioactivity tubes (0.5 ml buffer [B] added), tubes vortexed 3-5 sec, allowed to sit for 10 minutes and centrifuged 10 minutes at 2000 rpm in Beckman TJ-6 centrifuge at 0°-4° C.
Data Interpretation. […] The relative binding affinity (RBA) of each compound was calculated by using the following equation. [formula] where

[2] = test system: uterine endometrium of estrone-primed immature rabbits; test: Clauberg assay (progestational activity, McPhail); format: in vivo, rabbit (New Zealand White); conditions: for McPhail Index (0-4) (X ± S.D.): 0 none, 4 maximal
[3] = Assay 4, 16-18 hour incubation, progesterone = 100
[4] = Assay 5, 16-18 hour incubation, progesterone = 100

Row | SMILES | RBA [1, 3] | RBA [1, 4] | Uterine Weight (X ± S.D.) ([2]; oral, 100 μg/rabbit daily) | McPhail Index (0-4) (X ± S.D.) ([2]; oral, 100 μg/rabbit daily) | Uterine Weight (X ± S.D.) ([2]; oral, 200 μg/rabbit daily) | McPhail Index (0-4) (X ± S.D.) ([2]; oral, 200 μg/rabbit daily) | Uterine Weight (X ± S.D.) ([2]; oral, 400 μg/rabbit daily) | McPhail Index (0-4) (X ± S.D.) ([2]; oral, 400 μg/rabbit daily) | Uterine Weight (X ± S.D.) ([2]; sc, 5 μg/rabbit daily) | McPhail Index (0-4) (X ± S.D.) ([2]; sc, 5 μg/rabbit daily) | Uterine Weight (X ± S.D.) ([2]; sc, 10 μg/rabbit daily) | McPhail Index (0-4) (X ± S.D.) ([2]; sc, 10 μg/rabbit daily) | Uterine Weight (X ± S.D.) ([2]; sc, 20 μg/rabbit daily) | McPhail Index (0-4) (X ± S.D.) ([2]; sc, 20 μg/rabbit daily) | also measured
1 | C#C[C@]1(C(C)=O)CC[C@H]2[C@@H]3CC[C@H]4CC(=O)CC[C@@H]4[C@H]3CC[C@@]21C [17α-Ethynyl-19-nor-5α-pregnane-3,20-dione] | 67% | 66% |  |  |  |  |  |  |  |  |  |  |  |  | 
2 | C#C[C@]1(C(C)=O)CC[C@H]2[C@@H]3CCC4=CC(=O)CC[C@@H]4[C@H]3CC[C@@]21C [17α-Ethynyl-19-norprogesterone, 17α-ethynyl-19-nor-4-pregnene-3,20-dione] | 100% | 133% | 1.72 ± 0.36 g | 1.17 ± 1.10 | 1.70 ± 0.33 g | 0.83 ± 0.72 | 3.40 ± 1.14 g | 3.75 ± 0.10 | 3.55 ± 0.54 g | 3.97 ± 0.05 | 4.57 ± 0.67 g | 3.92 ± 0.12 | 4.94 ± 0.87 g | 4.00 ± 0.00 | progesterone receptor binding, in words ([1]; compared with progesterone): slightly greater than that of progesterone itself; progestational potency relative to subcutaneous progesterone, in words ([2]; compound given orally, progesterone sc): roughly comparable to subcutaneously administered progesterone; progestational potency relative to progesterone (sc) ([2]; compound given sc): about 100 times; Uterine Weight (X ± S.D.) ([2]; oral, 50 μg/rabbit daily): 1.41 ± 0.02 g; McPhail Index (0-4) (X ± S.D.) ([2]; oral, 50 μg/rabbit daily): 0.38 ± 0.27; Uterine Weight (X ± S.D.) ([2]; sc, 2.5 μg/rabbit daily): 2.64 ± 0.22 g; McPhail Index (0-4) (X ± S.D.) ([2]; sc, 2.5 μg/rabbit daily): 3.25 ± 0.41
3 | CC(=O)[C@H]1CC[C@H]2[C@@H]3C[C@H](C)C4=CC(=O)CC[C@]4(C)[C@H]3CC[C@]12C [6α-Methylprogesterone, reference compound] | 57% |  |  |  |  |  |  |  |  |  |  |  |  |  | 
4 | C#C[C@]1(C(C)=O)CC[C@H]2[C@@H]3CC[C@H]4CC(=O)CC[C@]4(C)[C@H]3CC[C@@]21C [5α-Dihydro-17α-ethynylprogesterone, 17α-Ethynyl-5α-pregnane-3,20-dione] |  |  | 1.00 g | 0 | 1.30 ± 0.22 g | 0.04 ± 0.06 | 1.10 ± 0.08 g | 0.04 ± 0.06 | 0.90 ± 0.29 g | 0.08 ± 0.12 | 1.33 ± 0.09 g | 0.29 ± 0.24 | 1.03 ± 0.17 g | 0.04 ± 0.06 | RBA, mean of assays (X±S.D.) ([1]; 16 to 18 hour incubation at 0° C., spurious value 11 excluded): 154±23; RBA ([1]; Assay 1, 16-18 hour incubation, progesterone = 100, 5α-dihydro-17α-ethynyl: lot 1): 11%; RBA ([1]; Assay 2, 16-18 hour incubation, progesterone = 100, 5α-dihydro-17α-ethynyl: lot 1): 186%; RBA ([1]; Assay 3, 16-18 hour incubation, progesterone = 100, 5α-dihydro-17α-ethynyl: lot 1): 144%; RBA ([1]; Assay 3, lot 2, 16-18 hour incubation, progesterone = 100): 133%; RBA ([1]; two-hour incubation at 0° C.): 211; progestational response, in words ([2]; sc 5, 10, 20, 100, 200, 400 and oral 100, 200, 400 μg/rabbit/day): inactive at all doses examined; Uterine Weight (X ± S.D.) ([2]; sc, 100 μg/rabbit daily): 1.18 ± 0.25 g; McPhail Index (0-4) (X ± S.D.) ([2]; sc, 100 μg/rabbit daily): 0.13 ± 0.13; Uterine Weight (X ± S.D.) ([2]; sc, 200 μg/rabbit daily): 1.15 ± 0.07 g; McPhail Index (0-4) (X ± S.D.) ([2]; sc, 200 μg/rabbit daily): 0.58 ± 0.16; Uterine Weight (X ± S.D.) ([2]; sc, 400 μg/rabbit daily): 1.24 ± 0.09 g; McPhail Index (0-4) (X ± S.D.) ([2]; sc, 400 μg/rabbit daily): 0.33 ± 0.06
